The values that follow are results of earlier work, collected in patent US20220160648A1, “Composition Comprising Hydrolyzed Collagen and Cannabidiol and Use Thereof” (Inspired Health Products, LLC, priority 2019, published 2022).

Each structure is given as a SMILES string.

The conditions of data set [1]: reported.
For data set [2] the following is noted: ingested, dosages from at least 3 g to as much as 60 g per day.

For `C=C(C)[C@@H]1CCC(C)=C[C@H]1c1c(O)cc(CCCCC)cc1O` [CBD isolate, 2-[(1R,6R)-3-methyl-6-prop-1-en-2-ylcyclohex-2-en-1-yl]-5-pentylbenzene-1,3-diol], in data set [1], the anticonvulsant properties entry is given as “did not”. Consider `NCC(=O)O` [glycine], for which the effect on sleep result in data set [2] is recorded as “beneficial effect on sleep”.
